# Test results from US20070197510A1, “Nitriles and medicinal compositions containing the same as the active ingredient” (priority 2004, published 2007).
# pIC50: −log10 of the molar value.
# Target: T1, cathepsin K (Homo sapiens, UniProt P43235)
# T1 sequence (P43235 115-329): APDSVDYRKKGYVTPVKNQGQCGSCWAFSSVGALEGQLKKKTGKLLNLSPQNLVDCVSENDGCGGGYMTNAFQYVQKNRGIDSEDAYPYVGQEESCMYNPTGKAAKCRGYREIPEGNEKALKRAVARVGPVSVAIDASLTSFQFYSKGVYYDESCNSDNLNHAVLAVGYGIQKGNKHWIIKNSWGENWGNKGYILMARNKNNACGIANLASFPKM
# Test: Measurement of cathepsin K inhibitory activity
# Type: biochemical
# Details: fluorogenic substrate Boc-Ala-Gly-Pro-Arg-MCA, pH 5.5, 37° C.
# Description: (i) Measurement of Cathepsin k Inhibitory Activity
# 65 μL of Cathepsin K Enzyme Reaction Buffer (50 Mmol/L of 2-(N-morpholino)ethanesulfonate, 2 mmol/L of ethylenediaminetetraacetate (EDTA) and 4 mmol/L of dithiothreitol (DTT) were mixed to adjust to pH 5.5), 5 μL of cysteine protease inhibitor solution of several concentrations, 20 μL of synthesized substrate (t-butyloxycarbonyl-L-alanyl-glycyl-L-prolyl-L-arginine-[…]) solution of several concentrations and 10 μL of cathepsin K enzyme solution were mixed and the increase of fluorescence intensity when reacted at 37° C. was measured (λex (excitation wavelength)=355 nm, λem (fluorescence wavelength)=460 nm). As to the substrate and the compound of the present invention, enzyme reactions were carried […]
row,pIC50,SMILES
1,8.54,"CC(C)(C)Cn1c2nc(C#N)ncc2c(=O)n1Cc1cccs1 [compound 8(2B), 1-(2,2-dimethylpropyl)-3-oxo-2-(2-thienylmethyl)-2,3-dihydro-1H-pyrazolo[3,4-d]pyrimidine-6-carbonitrile]"
2,7.92,"CN1CCN(C(=O)CN2Cc3cnc(C#N)nc3N(CC(C)(C)C)C2=O)CC1 [Example 55(14), 8-(2,2-dimethylpropyl)-6-[2-(4-methyl-1-piperazinyl)-2-oxoethyl]-7-oxo-5,6,7,8-tetrahydropyrimido[4,5-d]pyrimidine-2-carbonitrile]"
